Structures can show the parent of a compound that is named as a salt.
Experiment: In vitro inhibition of calcium phosphate crystallization in human plasma (spectrophotometric, 550 nm)
Assay type: biochemical
Settings: 0-100 μM compound, 1.5 mM phosphate and 12.5 mM calcium, pH 7.4, 30 min at rt, slope between 6 and 24 min, 30 min, read-out: Relative Potency (EC50)
Description: The in vitro efficacy of the IP5 substituted compounds (e.g., Compounds 1 to 32) of the invention on the inhibition of calcium phosphate crystallization in human plasma samples was evaluated according to a spectrophotometric assay previously described in the art (Ferrer M, et al., Sci Rep 2017; 7:6858, doi:10.1038/s41598-017-07203-x).
A 96-well plate was employed. Plasma was spiked (1 volume of the IP5 substituted compounds of the invention per 19 volumes of plasma) with increasing concentrations of the derivatives in the range of 0-100 μM. Plasma was then centrifuged at 10,000 g at rt and subsequently mixed with a mixture of 5 mM hydrogen phosphate and 41.67 mM calcium to attain final concentrations of 1.5 mM phosphate and 12.5 mM calcium, respectively. All reagent solutions were filtered, and pH adjusted to 7.4.
Crystallization of calcium phosphate was monitored spectrophotometrically for 30 min at rt by measuring the increments in absorbance at 550 nm using the Biotek Powerwave XS Microplate spectrophotometer (BioTek Instruments, Inc., Winooski, VT, US). The plate was incubated at rt in an orbital shaker and absorbance measured every 3 min.
Plasma crystallization was assessed based on slope measurement in the linear range between 6 and 24 min from plots of increase in absorbance versus logarithm of time. The efficacy of different myo-inositol phosphates derivatives in preventing in vitro formation of calcium phosphate crystals was assessed in human plasma samples using the slopes obtained between 6- and 24-min. Inhibition of crystallization was measured by comparing the slopes of the control sample (blank plasma) with those of samples containing the inhibitor as shown below: […]

For `O=P(O)(O)OC1C(OCCCCCC(F)(F)F)C(OP(=O)(O)O)C(OP(=O)(O)O)C(OP(=O)(O)O)C1OP(=O)(O)O` (centres unmarked) [Compound 36, 2-O-(6,6,6-Trifluorohexyl)-myo-inositol-1,3,4,5,6-pentakis(phosphate) decasodium salt], the EC50 was no more than 5 µM.

Same assay, conditions: 0-100 μM compound, 1.5 mM phosphate and 12.5 mM calcium, pH 7.4, 30 min at rt, slope between 6 and 24 min, read-out: Relative Potency (EC50)

“rac-4-O-Propyl-myo-inositol-1,2,3,5,6-pentakis(phosphate) decasodium salt [Compound 24]” and “5-O-(9-Methoxypentyl)-myo-inositol-1,2,3,4,6-pentakis(phosphate) decasodium salt [Compound 44]” cannot be ordered by EC50: no more than 5 µM for the first, 5 to 10 µM for the second.

“rac-4-O-(7-Methoxyheptyl)-myo-inositol-1,2,3,5,6-pentakis(phosphate) decasodium salt [Compound 23]” and “rac-4-O-(5-Hydroxypentyl)-myo-inositol-1,2,3,5,6-pentakis(phosphate) decasodium salt [Compound 2]” cannot be ordered by EC50: 5 to 10 µM for the first, no more than 5 µM for the second.

“rac-4-O-Pentyl-myo-inositol-1,2,3,5,6-pentakis(phosphate) decasodium salt [Compound 1]” and “rac-4-O-(5-Methoxypentyl)-myo-inositol-1,2,3,5,6-pentakis(phosphate) decasodium salt [Compound 3]” cannot be ordered by EC50: no more than 5 µM for the first, no more than 5 µM for the second.

“rac-1-O-(9-Methoxynonyl)-myo-inositol-2,3,4,5,6-pentakis(phosphate) decasodium salt [Compound 47]” and “rac-1-O-((1-(2-(Metoxycarbonyl)ethyl)-1H-1,2,3-triazol-4-yl)methyl)-myo-inositol-2,3,4,5,6-pentakis(phosphate) undecasodium salt [Compound 53]” cannot be ordered by EC50: no more than 5 µM for the first, 5 to 10 µM for the second.

Going from “rac-4-O-(6-(4-(carboxy)-1H-1,2,3-triazol-1-yl)hexyl)-myo-inositol-1,2,3,5,6-pentakis(phosphate) undecasodium salt [Compound 26]” to “rac-4-O-(2-(4-Acetylpiperazin-1-yl)ethyl)-myo-inositol-1,2,3,5,6-pentakis(phosphate) decasodium salt [Compound 5]”, the EC50 falls from greater than 10 µM to no more than 5 µM.

“rac-1-O-(5-Acetamidopentyl)-myo-inositol-2,3,4,5,6-pentakis(phosphate) decasodium salt [Compound 49]” and `CC(C)CCCOC1C(OP(=O)(O)O)C(OP(=O)(O)O)C(OP(=O)(O)O)C(OP(=O)(O)O)C1OP(=O)(O)O` (racemic) [Compound 12, rac-4-O-(4-Methylpentyl)-myo-inositol-1,2,3,5,6-pentakis(phosphate) decasodium salt] fall in the same range of EC50: 5 to 10 µM for the first, 5 to 10 µM for the second.

First: NCCCOC1C(OP(=O)(O)O)C(OP(=O)(O)O)C(OP(=O)(O)O)C(OP(=O)(O)O)C1OP(=O)(O)O (racemic) [Compound 27, rac-4-O-(3-Aminopropyl)-myo-inositol-1,2,3,5,6-pentakis(phosphate) decasodium salt]
Second: rac-4-O-(10-Carboxyldecyl)-myo-inositol-1,2,3,5,6-pentakis(phosphate) undecasodium salt [Compound 20]
The EC50 of the first is lower: no more than 5 µM for the first, greater than 10 µM for the second. The first is the more potent here.

“5-O-(2-Cyclopropylethyl)-myo-inositol-1,2,3,4,6-pentakis(phosphate) decasodium salt [Compound 30]” and `CCCOC1C(OP(=O)(O)O)C(OP(=O)(O)O)C(OP(=O)(O)O)C(OP(=O)(O)O)C1OP(=O)(O)O` (centres unmarked) [Compound 34, 2-O-Propyl-myo-inositol-1,3,4,5,6-pentakis(phosphate) decasodium salt] fall in the same range of EC50: 5 to 10 µM for the first, 5 to 10 µM for the second.

`NC(=O)CCCCCO[C@H]1[C@@H](OP(=O)(O)O)[C@H](OP(=O)(O)O)[C@@H](OP(=O)(O)O)[C@H](OP(=O)(O)O)[C@H]1OP(=O)(O)O` [Compound 37, 2-O-(6-Amino-6-oxohexyl)-myo-inositol-1,3,4,5,6-pentakis(phosphate) decasodium salt] and `COc1ccc(CCCOC2C(OP(=O)(O)O)C(OP(=O)(O)O)C(OP(=O)(O)O)C(OP(=O)(O)O)C2OP(=O)(O)O)cc1` (racemic) [Compound 14, rac-4-O-(3-(4-Methoxyphenyl)propyl)-myo-inositol-1,2,3,5,6-pentakis(phosphate) decasodium salt] cannot be ordered by EC50: 5 to 10 µM for the first, no more than 5 µM for the second.

`O=P(O)(O)OC1C(OCCC2CCCC2)C(OP(=O)(O)O)C(OP(=O)(O)O)C(OP(=O)(O)O)C1OP(=O)(O)O` (racemic) [Compound 16, rac-4-O-(2-Cyclopentylethyl)-myo-inositol-1,2,3,5,6-pentakis(phosphate) decasodium salt] and `O=P(O)(O)OC1C(OCCCCCO)C(OP(=O)(O)O)C(OP(=O)(O)O)C(OP(=O)(O)O)C1OP(=O)(O)O` (centres unmarked) [Compound 40, 2-O-(5-Hydroxypentyl)-myo-inositol-1,3,4,5,6-pentakis(phosphate) decasodium salt] cannot be ordered by EC50: no more than 5 µM for the first, 5 to 10 µM for the second.

“5-O-(9-Methoxynonyl)-myo-inositol-1,2,3,4,6-pentakis(phosphate) decasodium salt [Compound 31]” and `COCCCCCCCCCCCCCCCCCCCCCCCCCCCCCO[C@H]1[C@@H](OP(=O)(O)O)[C@H](OP(=O)(O)O)[C@@H](OP(=O)(O)O)[C@H](OP(=O)(O)O)[C@H]1OP(=O)(O)O` [Compound 10, 2-O-(29-methoxynonacosyl)-myo-inositol-1,3,4,5,6-pentakis(phosphate) decasodium salt] cannot be ordered by EC50: 5 to 10 µM for the first, no more than 5 µM for the second.

“rac-4-O-Methyl-myo-inositol-1,2,3,5,6-pentakis(phosphate) decasodium salt [Compound 22]” and “rac-1-O-Propyl-myo-inositol-2,3,4,5,6-pentakis(phosphate) decasodium salt [Compound 32]” cannot be ordered by EC50: 5 to 10 µM for the first, no more than 5 µM for the second.

First: O=C(O)CCc1cn(CCCOC2C(OP(=O)(O)O)C(OP(=O)(O)O)C(OP(=O)(O)O)C(OP(=O)(O)O)C2OP(=O)(O)O)nn1 (racemic) [Compound 25, rac-4-O-(3-(4-(2-carboxyethyl)-1H-1,2,3-triazol-1-yl)propyl)-myo-inositol-1,2,3,5,6-pentakis(phosphate) undecasodium salt]
Second: 5-O-(6,6,6-Trifluorohexyl)-myo-inositol-1,2,3,4,6-pentakis(phosphate) decasodium salt [Compound 45]
The EC50 of the first is higher: greater than 10 µM for the first, 5 to 10 µM for the second.

`O=P(O)(O)OC1C(OCCCc2cccc(C(F)(F)F)c2)C(OP(=O)(O)O)C(OP(=O)(O)O)C(OP(=O)(O)O)C1OP(=O)(O)O` (racemic) [Compound 15, rac-4-O-(3-(3-(Trifluoromethyl)phenyl)propyl)-myo-inositol-1,2,3,5,6-pentakis(phosphate) decasodium salt] and `O=P(O)(O)OC1C(OCCC2CCCC2)C(OP(=O)(O)O)C(OP(=O)(O)O)C(OP(=O)(O)O)C1OP(=O)(O)O` (racemic) [Compound 51, rac-1-O-(2-Cyclopentylethyl)-myo-inositol-2,3,4,5,6-pentakis(phosphate) decasodium salt] cannot be ordered by EC50: 5 to 10 µM for the first, no more than 5 µM for the second.

“2-O-((1-(2-Carboxyethyl)-1H-1,2,3-triazol-4-yl)methyl)-myo-inositol-1,3,4,5,6-pentakis(phosphate) undecasodium salt [Compound 42]” and `O=P(O)(O)OC1C(OCCC2CC2)C(OP(=O)(O)O)C(OP(=O)(O)O)C(OP(=O)(O)O)C1OP(=O)(O)O` (racemic) [Compound 17, rac-4-O-(2-Cyclopropylethyl)-myo-inositol-1,2,3,5,6-pentakis(phosphate) decasodium salt] fall in the same range of EC50: 5 to 10 µM for the first, 5 to 10 µM for the second.

`O=P(O)(O)O[C@@H]1[C@@H](OP(=O)(O)O)[C@H](OP(=O)(O)O)[C@H](OCCC2CCCC2)[C@H](OP(=O)(O)O)[C@H]1OP(=O)(O)O` [Compound 38, 2-O-(2-Cyclopentylethyl)-myo-inositol-1,3,4,5,6-pentakis(phosphate) decasodium salt] and “rac-1-O-(2-Cyclopropylethyl)-myo-inositol-2,3,4,5,6-pentakis(phosphate) decasodium salt [Compound 48]” cannot be ordered by EC50: 5 to 10 µM for the first, no more than 5 µM for the second.

Compared with `O=P(O)(O)OC1C(OCCCCCn2cccn2)C(OP(=O)(O)O)C(OP(=O)(O)O)C(OP(=O)(O)O)C1OP(=O)(O)O` (racemic) [Compound 18, rac-4-O-(5-(1H-Pyrazol-1-yl)pentyl)-myo-inositol-1,2,3,5,6-pentakis(phosphate) decasodium salt], “2-O-(5-(4-(Methoxymethyl)-1H-1,2,3-triazol-1-yl)pentyl)-myo-inositol-1,3,4,5,6-pentakis(phosphate) decasodium [Compound 41]” is higher in EC50: 5 to 10 µM for the first, greater than 10 µM for the second.

Compared with `O=P(O)(O)OC1C(OCCC2CC2)C(OP(=O)(O)O)C(OP(=O)(O)O)C(OP(=O)(O)O)C1OP(=O)(O)O` (centres unmarked) [Compound 39, 2-O-(2-Cyclopropylethyl)-myo-inositol-1,3,4,5,6-pentakis(phosphate) decasodium salt], “2-O-(19-methoxynonadecyl)-myo-inositol-1,3,4,5,6-pentakis(phosphate) decasodium salt [Compound 9]” is higher in EC50: 5 to 10 µM for the first, greater than 10 µM for the second.

With “rac-4-O-(10-Hydroxydecyl)-myo-inositol-1,2,3,5,6-pentakis(phosphate) decasodium salt [Compound 21]” the EC50 was greater than 10 µM.
